pIC50: −log10 of the molar value.
Tested on: Liposome
Experiment: In vitro inhibition of peroxyl radical-dependent oxidation of liposomes from soybean phosphatidylcholine by ethanol injection.
Assay type: functional, Glycine max

SMILES	pIC50
CC1(C)Cc2cc(Cl)cc(Cl)c2C=[N+]1[O-]	4.74
[O-][N+]1=Cc2ccccc2CC12CCCCC2	5.10
CC1(C)Cc2ccccc2C=[N+]1[O-]	3.70
[O-][N+]1=Cc2ccccc2CC12CCCC2	4.68
COc1ccc2c(c1)CC1(CCCCC1)[N+]([O-])=C2	4.96
CC(C)(C)/[N+]([O-])=C/c1ccccc1	2.66
COc1cccc2c1C=[N+]([O-])C1(CCCCC1)C2	4.42
[O-][N+]1=Cc2cc(Cl)ccc2CC12CCCCC2	5.52

Now from value to molecule:

pIC50	SMILES
4.17	COc1ccc2c(c1)C=[N+]([O-])C(C)(C)C2
3.89	COc1cc2c(cc1OC)CC(C)(C)[N+]([O-])=C2
3.80	CC1(C)Cc2cc(F)ccc2C=[N+]1[O-]
4.62	CC1(C)Cc2c(Cl)cccc2C=[N+]1[O-]
4.26	CC1(C)Cc2cc(Cl)ccc2C=[N+]1[O-]
4.35	CC1(C)Cc2cccc(Cl)c2C=[N+]1[O-]
4.39	CC1(C)Cc2ccc(Cl)cc2C=[N+]1[O-]
4.17	CC1(C)Cc2ccc(F)cc2C=[N+]1[O-]
4.16	COc1ccc2c(c1)CC(C)(C)[N+]([O-])=C2
4.25	COc1ccc(F)c2c1CC(C)(C)[N+]([O-])=C2

Reference: ChEMBL document CHEMBL1129772, “Synthesis and radical scavenging activity of 3,3-dialkyl-3,4-dihydro-isoquinoline 2-oxides” (Bioorg Med Chem Lett, 1996)
